The test system of series [1] is Bacillus cereus (B. cereus) CVCC 4101. It is filed as cell-based. The note with it: NB medium, 37 °C, 18 h, three independent measurements. The protocol: (§1) MIC was determined using the broth microdilution method with minor modification. In brief, bacteria (S. aureus ATCC 43300, E. faecalis ATCC 29212, E. coli ATCC 25922, P. aeruginosa ATCC 27853, L. monocytogenes CVCC 3764, B. cereus CVCC 4101, S. Castellani CGMCC 1.1869, and the multidrug-resistant E. coli strain) were cultured in nutrient broth (NB) medium (Macklin, Shanghai, China) to the logarithmic phase and diluted to 1 × 10^6 colony forming units (CFUs)/mL. The MDLs were dissolved to a final concentration of 256~0.25 μg/mL in NB medium using two-fold dilutions. A total of 50 μL of different concentrations of the MDL solutions and an equal volume of bacterial suspension were added to a 96-well plate, which was then incubated at 37 °C for 18 h. The minimum concentrations of the MDLs with no visible growth of bacteria were defined as the corresponding MICs. Media containing bacteria without the MDLs were set as the negative control. Each measurement was performed independently three times.

For series [2], the system named is Enterococcus faecalis (E. faecalis) ATCC 29212. The class given is cell-based. The note with it: NB medium, 37 °C, 18 h, three independent measurements. The method, then: as §1
Series [3] concerns Shigella castellani (S. castellani) CGMCC 1.1869. It is filed as cell-based. The note with it: NB medium, 37 °C, 18 h, three independent measurements. The protocol: as §1
In series [4] the test system is Multidrug-Resistant Escherichia coli (E. coli) Strain. The class given is cell-based. The conditions noted are these: NB medium, 37 °C, 18 h, three independent measurements. From the text:
The standard strains of S. aureus ATCC 43300, E. faecalis ATCC 29212, E. coli ATCC 25922, and P. aeruginosa ATCC 27853 were obtained from the American Type Culture Collection (ATCC). L. monocytogenes CVCC 3764 and B. cereus CVCC 4101 were obtained from the National Center for Veterinary Culture Collection (CVCC). S. castellani CGMCC 1.1869 was obtained from the China General Microbiological Culture Collection Center. The multidrug-resistant strain Escherichia coli was obtained from the research base of the Chongqing Academy of Animal Sciences (Chongqing, China). All strains were cultured in nutrient broth overnight at 37 °C to a logarithmic growth phase before each experiment.
MIC was determined using the broth microdilution method with minor modification. In brief, bacteria (S. aureus ATCC 43300, E. faecalis ATCC 29212, E. coli ATCC 25922, P. aeruginosa ATCC 27853, L. monocytogenes CVCC 3764, B. cereus CVCC 4101, S. Castellani CGMCC 1.1869, and the multidrug-resistant E. coli strain) were cultured in nutrient broth (NB) medium (Macklin, Shanghai, China) to the logarithmic phase and diluted to 1 × 10^6 colony forming units (CFUs)/mL. The MDLs were dissolved to a final concentration of 256~0.25 μg/mL in NB medium using two-fold dilutions. […]

In the next series the test system is swine erythrocytes. The series can be described thus: Hemolytic activity assay. The class given is cell-based. The conditions noted are these: swine erythrocytes in PBS, 1 h, 37 °C; concentration more than 4 μg/mL. The protocol:
The hemolytic activity of the MDLs was evaluated as described previously with minor modification. Swine erythrocytes were collected by centrifugation at 1000 rpm for 5 min, washed three times, and suspended to a final concentration of 8% vol/vol with PBS (Macklin, Shanghai, China). Equal volumes of erythrocyte suspension and the MDLs solutions at various concentrations were mixed in a 96-well plate and incubated for 1 h at 37 °C. After centrifugation at 1000 rpm for 10 min, the supernatant was transferred to a 96-well plate. The supernatant optical density (OD) was measured at 490 nm using a microplate reader (BioTek, Winooski, VT, USA). Untreated erythrocytes and erythrocytes treated with 1% Triton X-100 (Merck, Darmstadt, Germany) were employed as the negative and positive controls, respectively. The hemolysis percentage was calculated using the following equation: Hemolysis rate%=OD490(lipopeptide)−OD490(PBS)/OD490(1% Triton X-100)−OD490(PBS)×100%

In a further series the test system is human red blood cells. The note with it: cited from earlier work. The method, then:
(§2) Despite its multiple potential biological activities, the applications for melittin are limited due to its severe hemolytic activity and low proteolytic stability. Melittin results in 50% hemolysis of human red blood cells at a concentration of 2 μM and 100% at 7 μM [19].

The subject of the next series is trypsin. The note with it: cited from earlier work. The protocol:
as §2

The next series relates to pepsin. The note with it: after 2 h of incubation; cited from earlier work. From the text: Poor protease stability is one of the main factors that has limited melittin’s clinical application.
The conditions of series [5]: fetal bovine serum, human serum, and human plasma; cited from earlier work. The text has this: However, binding with serum albumin would weaken the detection of the free MDLs and reduce their antibacterial activity.

≈ marks a conversion by molar mass, not a printed value.

In general, MIC refers to the lowest concentration found to suppress growth. For `CC[C@H](C)[C@H](NC(=O)CN)C(=O)NCC(=O)N[C@@H](C)C(=O)N[C@H](C(=O)N[C@@H](CC(C)C)C(=O)N[C@@H](CCCCN)C(=O)N[C@H](C(=O)N[C@@H](CC(C)C)C(=O)N[C@H](C(=O)N[C@H](C(=O)NCC(=O)N[C@@H](CC(C)C)C(=O)N1CCC[C@H]1C(=O)N[C@@H](C)C(=O)N[C@@H](CC(C)C)C(=O)N[C@H](C(=O)N[C@@H](CO)C(=O)N[C@@H](Cc1c[nH]c2ccccc12)C(=O)N[C@H](C(=O)N[C@@H](CCCCN)C(=O)N[C@@H](CCCNC(=N)N)C(=O)N[C@@H](CCCCN)C(=O)N[C@@H](CCCNC(=N)N)C(=O)N[C@@H](CCC(N)=O)C(=O)N[C@@H](CCC(N)=O)C(N)=O)[C@@H](C)CC)[C@@H](C)CC)[C@@H](C)O)[C@@H](C)O)C(C)C)C(C)C` [Mel, Melittin], the MIC in series [1] was determined as 16 µg/mL (≈ 5.62 µM); in [2] it was 16 µg/mL (≈ 5.62 µM); in series [3], 32 µg/mL (≈ 11.2 µM); in series [4] it was 64 µg/mL (≈ 22.5 µM). The hemolysis rate result with swine erythrocytes was “rapidly increased”. Further, the “concentration resulting in 50% hemolysis” value with human red blood cells was 2 µM. Further, the “concentration resulting in 100% hemolysis” value in the series with human red blood cells is 7 µM. In the series with trypsin (after 60 min of incubation), the “melittin left after incubation with trypsin” value was “almost no melittin is left”. In addition, in the series with trypsin, the digestion by trypsin entry was “digested rapidly”. Also, the degradation by pepsin entry in the series on pepsin is on record as “entirely degraded”. The “stability in serum and plasma” value in series [5] was “stable”.

(Values after PMC10815238, “New N-Terminal Fatty-Acid-Modified Melittin Analogs with Potent Biological Activity” (International Journal of Molecular Sciences, 2024).)
